Assay [1] concerns MMP13 expression in SW1353 chondrosarcoma cell line. Put plainly: MMP13 assay: IL-1/OSM-driven MMP13 expression in SW1353 cells (MMP13 ELISA). It counts as cell-based. The settings on record: Homo sapiens, IL-1β and OSM, 48 hr. How it is done:
The protocol of the MMP13 ELISA is described in section 4.1, then testing of compounds on release of IL-1/OSM-driven MMP13 expression in SW1353 chondrosarcoma cell line is described in section 4.2.
A 384 well format ELISA for measurement of MMP13 was developed. Various primary antibodies were tested, as well as various ELISA protocols. The following protocol is developed and validated to measure MMP13 levels in supernatant of cell cultures in 384 well plates.
Black maxisorb 384 well plates (Nunc 460518) are coated with 35 μl of a buffered solution containing 1.5 μg/mL anti-MMP13 antibody MAB511 (R&D systems). The antibody is diluted in carbonate-bicarbonate coating buffer (1.59 g Na2CO3 (Sigma S-7795) and 2.93 g NaHCO3 (Sigma S-5761) in 1 L MilliQ water, adjusted to pH 9.6). After overnight incubation at 4° C., wells are washed twice with 100 μL PBST (80 g NaCl, 2 g KCl (Sigma), 11.5 g Na2HPO4.7H2O and 2 g KH2PO4 in 10 L milliQ water; pH 7.4+0.05% Tween-20 (Sigma)) and blocked with 100 μL/well blocking buffer (5% non fat dry milk in PBS). After overnight incubation at 4° C., wells are washed twice with 100 μL PBST. The PBST is removed and 35 μL of sample is transferred to the ELISA plates. After 4 hr incubation at RT, plates are washed twice with PBST and incubated for 1 hr at 37° C. with 35 μL/well 1.5 mM APMA solution (a 10 mM APMA stock solution is prepared one day before (35.18 mg APMA (Sigma A-9563) in 10 mL 0.1M NaOH (Merck 1.06469.1000) and stored at 4° C. Before use, the 10 mM APMA stock solution is diluted to 1.5 mM in 1×APMA buffer (10× APMA buffer: 500 mM Tris (Roche 708976), 50 mM CaCl2 (Sigma C-5080), […] ZnCl2 (Sigma Z-0173), 1.5 M NaCl (Calbiochem 567441), 0.5% Brij35 (Sigma 430 AG-6) and adjust to pH 7.0). After activation of MMP13 by APMA, plates are washed again two times with 100 μL PBST/well and 35 μL of substrate solution is added to each well. Substrate solution is prepared as follows: OmniMMP Fluorescent substrate (Biomol P-126) stock solution (2 mM in DMSO, stored at −20° C.) is diluted in 1× OmniMMP buffer (10× OmniMMP buffer: 500 mM Hepes (Sigma H4034), 100 mM CaCl2 (Sigma C5080), 0.5% Brij35 (Sigma 430 AG-6; adjusted to pH 7.0) to a final concentration of 0.01 mM. After an overnight incubation at 37° C., the active MMP13 in the sample has cleaved the substrate and released fluorescence. Readout is performed on the EnVision (Perkin Elmer) using 320 nm excitation/405 nm emission filters.
Human chondrosarcoma cell line SW1353 was acquired from ATCC and grown in DMEM supplemented with 10% heat-inactivated FBS and 1× penicillin/streptomycin (Invitrogen) in a humidified 5% CO2 incubator at 37° C. Aliquots of the cells were frozen and cryopreserved in liquid nitrogen. Starting from a cryopreserved aliquot, cells are further grown by sub-culturing at a 1/5-1/8 ratio twice a week by trypsinisation.
Starting from the compound master stocks (all at 10 mM concentration in 100% DMSO) a 3-fold serial dilution is made in 96-well plates in 100% DMSO. Then, plates are futher diluted 50-fold in M199 medium supplemented with 1% heat-inactivated FBS to obtain an intermediate work stock.
At day 1, SW1353 cells are seeded in 96-well plates (flat bottom, tissue culture treated, Greiner) at a density of 15000 cells/well in 120 μL growth medium. The next day, 15 μL compound out of the intermediate work stock is added. After an incubation period of 60 minutes, which allows the compounds to equilibrate and enter the cells, cells are stimulated with a mixture of IL-1β and OSM, added in a volume of 15 μL to obtain final concentrations of 1 ng/ml IL-1β and 25 ng/ml OSM. For that, stocks of IL-1 (10 μg/ml) and OSM (25 μg/ml) (both PeproTech) were diluted to 10 ng/ml and 250 ng/ml respectively, in M199 medium supplemented with 1% FBS. After incubation for 48 hr, the cell supernatant was harvested and an appropriate dilution was processed in the MMP13 ELISA as described above, delivering raw data (RFU: relative fluorescence units). […]
(In an ELISA, binding on a coated surface is turned into a signal by an enzyme label.)

The target in a further assay is T1, MAPKAPK5 (Homo sapiens, UniProt Q8IW41).
T1 sequence (Q8IW41 1-471 isoform Q8IW41-2): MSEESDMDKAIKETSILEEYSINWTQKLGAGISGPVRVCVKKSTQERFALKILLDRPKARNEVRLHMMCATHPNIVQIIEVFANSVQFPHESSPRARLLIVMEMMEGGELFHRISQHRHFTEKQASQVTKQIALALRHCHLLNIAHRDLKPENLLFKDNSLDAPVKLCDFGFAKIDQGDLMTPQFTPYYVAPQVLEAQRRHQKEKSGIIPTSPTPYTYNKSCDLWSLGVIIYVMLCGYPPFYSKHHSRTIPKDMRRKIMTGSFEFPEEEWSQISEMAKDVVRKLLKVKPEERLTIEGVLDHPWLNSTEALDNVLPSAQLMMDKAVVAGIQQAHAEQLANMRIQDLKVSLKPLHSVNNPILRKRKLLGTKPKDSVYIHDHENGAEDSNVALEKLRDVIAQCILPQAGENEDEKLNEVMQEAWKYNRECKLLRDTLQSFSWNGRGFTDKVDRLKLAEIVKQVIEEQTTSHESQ
As to the kind of experiment: MAPKAP-K5 FlashPlate kinase assay. It counts as biochemical. Conditions: 0.6 μM ATP, 30 minutes, room temperature. On the procedure: MAPKAP-K5 reactions are performed in FlashPlate format using 0.1 or 0.2 μCi 33P-ATP; 0.6 μM ATP; 1 mU MAPKAP-K5; 3 μM MAPKAP-K5 peptide substrate, incubated at room temperature for 30 minutes.
The MAPKAP-K5 kinase reaction is performed in a 384 well polypropylene plate (Matrix Technologies) and then transferred to a streptavidin-coated 384 well flashplate (Perkin-Elmer). To wells containing 2 μL test compound or standard inhibitor, 13 μL Enzyme mix or diluent are added using a Hydra (Robbins Scientific). Reactions are started by addition of 10 μL of [2.5×] substrate cocktail using a Multidrop (Thermo-Labsystems), to give final concentrations in the assay of: • 1 mU MAPKAP-K5 • 3 μM MAPKAP-K5 peptide substrate • 0.6 μM ATP • 0.004 μCi [33P]-γ-ATP/μL • 1× reaction buffer
Plates are incubated at room temperature for 30 minutes. Reactions are terminated by the addition of 25 μL EDTA (50 mM) to each well using a Micro-fill (Biotek). Reactions are transferred to a streptavidin-coated flashplate using a Zymark robotic system. Plates are incubated for 60 minutes at room temperature. All wells are washed 3 times with 100 μl phosphate buffered saline using a Tecan plate washer. Radioactivity is determined by scintillation counting of the flashplate (empty wells) on a Packard TopCount.
Enzyme Mix: • Enzyme • 50 mM Tris Hcl (pH 7.5) • 0.1 mM EGTA • 2 mM DTT • 1 mg/mL BSA
Reaction Buffer: • 50 mM Tris Hcl (pH 7.5) • 0.1 mM EGTA • 10 mM Magnesium acetate • 2 mM DTT

Assay [2] concerns MMP1 expression by activated synovial fibroblasts (RASFs). Put plainly: 'MMP assay': complex trigger-induced MMP1 expression by synovial fibroblasts (MMP1 ELISA). The class given is cell-based. Conditions: Homo sapiens, Fibroblast; RASFs, complex trigger, 48 hrs; read-out: MMP1 IC50. How it is done:
A 384-well format ELISA for measurement of MMP1 is developed. Various primary antibodies are tested, as well as various ELISA protocols. The following protocol is developed and validated to measure MMP1 levels in SF supernatant in 384 well plates: white Lumitrac 600 384 well plates (Greiner) are coated with 2 μg/mL anti-MMP1 antibody MAB1346 (Chemicon). The antibody is diluted in buffer 40 (1.21 g Tris base (Sigma), 0.58 g NaCl (Calbiochem) and 5 ml 10% NaN3 (Sigma) in 1 L milliQ water and adjusted to pH 8.5). After overnight incubation at 4° C., plates are washed with PBS (80 g NaCl, 2 g KCl (Sigma), 11.5 g Na2HPO4.7H2O and 2 g KH2PO4 in 10 L milliQ; pH 7.4) and blocked with 100 μL/well Casein buffer (2% Casein (VWR International) in PBS). Next day, casein buffer is removed from ELISA plates and replaced by 50 μL/well EC buffer (4 g casein, 2.13 g Na2HPO4 (Sigma), 2 g bovine albumin (Sigma), 0.69 g NaH2PO4.H2O (Sigma), 0.5 g CHAPS (Roche), 23.3 g NaCl, 4 ml 0,5 M EDTA pH 8 (Invitrogen), 5 ml 10% NaN3 in 1 L milliQ and adjusted to pH 7.0). 0.25 mM DTT (Sigma) is added to the thawed samples plates. After removal of the EC buffer, 20 μL of sample is transferred to the ELISA plates. After overnight incubation at 4° C. plates are washed twice with PBS and once with PBST (PBS with 0.05% Tween-20 (Sigma)) and incubated with 35 μL/well biotinylated anti-MMP1 antibody solution (R&D). This secondary antibody is diluted in buffer C (0.82 g NaH2PO4.H2O, 4.82 g Na2HPO4, 46.6 g NaCl, 20 g bovine albumin and 4 mL 0,5M EDTA pH 8 in 2 L milliQ and adjusted to pH 7.0) at a concentration of 5 μg/mL. After 2 h of incubation at RT, plates are washed as described above and incubated with 50 μL/well streptavidin-HRP conjugate (Biosource). Streptavidin-HRP conjugate is diluted in buffer C at a concentration of 0.25 μg/mL. After 45 min, plates are washed as described above and incubated for 5 min with 50 μL/well BM Chem ELISA Substrate (Roche). Readout is performed on the Luminoscan Ascent Luminometer (Labsystems) with an integration time of 200 msec or with an Envision reader (Perkin Elmer).
The increase of MMP1 expression by SFs upon treatment with cytokines relevant in the field of RA (TNF-α, IL1β and OSM) or a combination thereof is shown in FIG. 2 as white bars. For this experiment, SFs are seeded in 96 well plates, 3,000 cells/well. 24 h later, the medium is changed to M199 medium supplemented with 1% FBS. One day after the medium change, cytokines or combinations thereof are added to the cultures, each cytokine being added to a final concentration of 25 ng/mL. 72 h after cytokine addition, the supernatant is collected and processed in the MMP1 ELISA as described in the protocol given above. In parallel with this experiment, SFs are triggered, using the same protocol, with the supernatant of THP1 cells (2-fold diluted in M199+1% FBS) treated with the same cytokines or combinations of cytokines for 48 h in M199 medium+1% FBS. The induction of the MMP1 expression by SFs triggered with the supernatants of TNF-α-treated THP1 cells is stronger (>4.5 fold induction) as compared to the SFs triggered with recombinant TNF-α alone (3-fold induction) and almost equals the 5-fold induction obtained by a mixture of 3 purified cytokines (TNF-α, IL1βb, OSM). […] As the role of TNF-α in the RA pathogenesis is validated (TNF-α-blockers such as Infliximab and Etanercept show some efficacy in the treatment of RA patients) and the THP-1 cells are representative for monocytes/macrophages present in the joint of RA patients, the TNF-α-based trigger mixture prepared by contacting THP-1 cells with TNF-α will contain factors present in the joints of RA patients and subsequently is relevant to RA. This TNF-α-based complex trigger, further referred to as the ‘complex trigger’, will further be used as basis for the ‘MMP assay’. […]

By IC50 is commonly meant the midpoint of a concentration-inhibition curve. In the case of `CC(C)N1C[C@@H]2C[C@H]1CN2c1ccc(Nc2ncc(-c3coc(C(N)=O)c3)n3ncnc23)cn1` [Compound 7, 4-{8-(6-((1S,4S)-5-isopropyl-2,5-diazabicyclo[2.2.1]heptan-2-yl)pyridin-3-ylamino)-[1,2,4]triazolo[1,5-a]pyrazin-5-yl}-furan-2-carboxamide], the IC50 in assay [1] was 1 to 500 nM; against MAPKAPK5, 0.01 to 100 nM.

As to `CC(C)N1CC2CCC1CN2c1ccc(Nc2ncc(-c3coc(C(N)=O)c3)n3ccnc23)cc1` (stereo not drawn) [Compound 10, 4-{8-(4-(5-isopropyl-1-2,5-diazabicyclo[2.2.2]octan-2-yl)phenylamino)-imidazo[1,2-a]pyrazin-5-yl}-furan-2-carboxamide], the IC50 is 101 to 500 nM on MAPKAPK5 and greater than 1000 nM in assay [2]. `CC(C)N1CC2CCC(C1)N2c1ccc(Nc2ncc(-c3coc(C(N)=O)c3)n3ncnc23)cc1` [Compound 13, 4-{8-(4-(3-isopropyl-3,8-diazabicyclo[3.2.1]octan-8-yl)phenylamino)[1,2,4]-triazolo[1,5-a]pyrazin-5-yl}-furan-2-carboxamide]: the IC50 in assay [1] was greater than 1000 nM; against MAPKAPK5, 0.01 to 100 nM.

In the case of `CC(C)N1C2CCC1CN(c1ccc(Nc3ncc(-c4coc(C(N)=O)c4)n4ccnc34)cc1)C2` [Compound 14, 4-{8-(4-(8-isopropyl-3,8-diazabicyclo[3.2.1]octan-3-yl)phenylamino)-imidazo[1,2-a]pyrazin-5-yl}-furan-2-carboxamide], the IC50 on MAPKAPK5 is 101 to 500 nM; in assay [2], greater than 1000 nM. Take `CC(C)N1C[C@H]2C[C@@H]1CN2c1ccc(Nc2ncc(-c3coc(C(N)=O)c3)n3ncnc23)cc1` [Compound 27, 4-[8-({4-[(1R,4R)-5-isopropyl-2,5-diazabicyclo[2.2.1]hept-2-yl]phenyl}amino)[1,2,4]triazolo[1,5-a]pyrazin-5-yl]-2-furamide]: the IC50 against MAPKAPK5 lay within 0.01 to 100 nM.

For the origin of these results see patent publication US8012983B2, “Substituted triazolopyrazines useful for the treatment of degenerative and inflammatory diseases” (Galapagos NV, priority 2008, dated 2011).
